According to paper PMC6403271, “Characterization, mechanism of action and optimization of activity of a novel peptide-peptoid hybrid against bacterial pathogens involved in canine skin infections” (Scientific Reports, 2019):
Square brackets hold non-standard residues; d marks the D form. Peptide text beside a SMILES is read from it. 1Nal = N[C@@H](Cc1cccc2ccccc12)C(=O)O; 2Nal = N[C@@H](Cc1ccc2ccccc2c1)C(=O)O; d1Nal = N[C@H](Cc1cccc2ccccc12)C(=O)O; d2Nal = N[C@H](Cc1ccc2ccccc2c1)C(=O)O; Nle = CCCC[C@H](N)C(=O)O; Nlys = NCCCCNCC(=O)O

Columns and labels:
human red blood cells = assay type: cell-based; conditions: for EC50: red cells of human, 1 h
Experimental: (§1) Briefly, two-fold serial dilutions (2.35 to 150 μM) of compounds in phosphate buffer saline (PBS) were mixed with equal volume of 0.5% v/v suspension of fresh human red blood cells (RBC) in the same buffer. After 1 h incubation at 37 °C, plates were centrifuged and aliquots of the supernatants were transferred to clear 96-well plates. Absorbance at 414 nm was measured and normalized using a negative (PBS, 0%) and a positive (melittin, 100%) control. The EC10 and EC50 are concentrations at which 10% and 50% of RBC were lysed, respectively, as interpolated graphically by the y-axis intersection of the plotted data.

[1] = assay type: cell-based, human; conditions: human
Experimental: as §1

MRSP C22963 = assay type: cell-based, Staphylococcus pseudintermedius; conditions: 18 h
Experimental: (§2) Activity of B1 was tested on 50P. aeruginosa isolates and 57S. pseudintermedius isolates (including 7 MRSP) that had been isolated in the diagnostic laboratory Sund Vet Diagnostik (University of Copenhagen) from various infections in dogs between 2009 and 2011. Representative MRSP (C22963), MSSA, and P. aeruginosa (26314) were used for testing the first set of B1 analogues.
(§3) MIC determination was performed by broth microdilution according to the Clinical and Laboratory Standard Institute (CLSI, M31-A3, 2008)[62]. In brief, each bacterial strain was diluted to concentration of 5 × 10^5 CFU/mL in Mueller Hinton broth II (MHB II) media (Oxoid) and added to a two-fold serial dilution of peptides and peptide-peptoid hybrids concentrations ranging from 1 to 64 µg/ml in 96-well plates (Nunc Internationals, Rochester, NY). The MICs were determined as a lowest concentration showing no visible growth after incubation for 18 hours at 37 °C. Experiments were performed in triplicates on two different days.

MSSA (ATCC 29213) = assay type: cell-based, Staphylococcus aureus; conditions: ATCC 29213, 18 h
Experimental: as §2, §3

P. aeruginosa (26314) = assay type: cell-based, Pseudomonas aeruginosa; conditions: 26314, 18 h
Experimental: Activity of B1 was tested on […]. aeruginosa isolates and […]. pseudintermedius isolates (including 7 MRSP) that had been isolated in the diagnostic laboratory Sund Vet Diagnostik (University of Copenhagen) from various infections in dogs between 2009 and 2011. Representative […], and P. aeruginosa (26314) were used for testing the first set of B1 analogues. For antibacterial spectrum the following strains were used: Corynebacterium auriscanis, 31551, (54 C6, dog, ear, 2013); Enterococcus faecalis, 27404, (17 C7, dog, wound, 2011); Enterococcus faecium, 30951, (24 C1, dog, ear, 2013); Streptococcus canis, 26740-1, (14 H1, dog, ear, 2010); Staphylococcus aureus, 27266, (16 G9, dog, skin, 2010); Staphylococcus aureus, 27266, (16 G9, dog, skin, 2010); Staphylococcus pseudintermedius 22963, (3 B9, dog, 2007). Acinetobacter baumannii, 27065, (16 D1, dog, wound, 2010); E. coli, 30235, 23 A6, dog, wound, 2012; Klebsiella pneumoniae, 26233, (11 H5, dog, wound, 2010); Pasteurella canis, 31096, (24 C8, dog, skin, 2013); Proteus mirabilis, 25178, (9 A4, dog, ear, 2009); Pseudomonas aeruginosa 26314, 12 C5, dog, urine, 2010). MIC determination was performed by broth microdilution according to the Clinical and Laboratory Standard Institute (CLSI, […]-A3, 2008)[62]. In brief, each bacterial strain was diluted to concentration of 5 × 10^5 CFU/mL in Mueller Hinton broth II (MHB II) media (Oxoid) and added to a two-fold serial dilution of peptides and peptide-peptoid hybrids concentrations ranging from 1 to 64 μg/ml in 96-well plates (Nunc Internationals, Rochester, NY). The MICs were determined as a lowest concentration showing no visible growth after incubation for 18 hours at 37 °C. Experiments were performed in triplicates on two different days.

Structure (SMILES)	Haemolysis EC10 (human red blood cells)	EC50 (human red blood cells)	hemolysis at 1 h, 150 µM [1]	Minimum Inhibitory Concentration MRSP C22963 (MRSP C22963)	Minimum Inhibitory Concentration MSSA (ATCC 29213) (MSSA (ATCC 29213))	Minimum Inhibitory Concentration P. aeruginosa (26314) (P. aeruginosa (26314))
CC(C)C[C@@H](NC(=O)[C@H](CCCCN)NC(=O)[C@H](CCCCN)NC(=O)[C@@H](N)CCCCN)C(=O)N[C@H](Cc1ccc2ccccc2c1)C(=O)N[C@H](Cc1ccccc1)C(=O)N[C@H](Cc1ccc2ccccc2c1)C(N)=O [Compound 16, Lys-Lys-Lys-leu-(2-Nal)ala-phe-(2-Nal)ala] (H-KKK[dL][d2Nal][dF][d2Nal]-NH2; N-terminus assumed)	18 µM	118 µM	60%	2 to 4 µg/mL	8 to 16 µg/mL	32 µg/mL
CCCC[C@H](NC(=O)[C@H](CCCCN)NC(=O)[C@H](CCCCN)NC(=O)[C@@H](N)CCCCN)C(=O)N[C@@H](Cc1cccc2ccccc12)C(=O)N[C@@H](Cc1ccccc1)C(=O)N[C@@H](Cc1cccc2ccccc12)C(N)=O [Compound 24, Lys-Lys-Lys-Nle-(1-Nal)Ala-Phe-(1-Nal)Ala] (H-KKK[Nle][1Nal]F[1Nal]-NH2; N-terminus assumed)	3 µM	41 µM	60%	16 to 32 µg/mL	>64 µg/mL	16 µg/mL
CC(C)C[C@H](NC(=O)[C@H](CCCCN)NC(=O)[C@H](CCCCN)NC(=O)[C@@H](N)CCCCN)C(=O)N[C@@H](Cc1ccc2ccccc2c1)C(=O)N[C@@H](Cc1ccccc1)C(=O)N[C@@H](Cc1ccc2ccccc2c1)C(N)=O [Compound 9, Lys-Lys-Lys-Leu-(2-Nal)Ala-Phe-(2-Nal)Ala] (H-KKKL[2Nal]F[2Nal]-NH2; N-terminus assumed)	46 µM	–	39%	8 µg/mL	16 µg/mL	16 µg/mL
CC(C)C[C@H](NC(=O)[C@H](CCCCN)NC(=O)[C@@H](N)CCCCN)C(=O)N[C@@H](CCCCN)C(=O)N[C@@H](Cc1ccc2ccccc2c1)C(=O)N[C@@H](Cc1ccccc1)C(=O)N[C@@H](Cc1ccc2ccccc2c1)C(N)=O [Compound 8, Lys-Lys-Leu-Lys-(2-Nal)Ala-Phe-(2-Nal)Ala] (H-KKLK[2Nal]F[2Nal]-NH2; N-terminus assumed)	56 µM	–	34%	8 µg/mL	16 µg/mL	32 µg/mL
CC(C)C[C@H](NC(=O)CN(CCCCN)C(=O)CN(CCCCN)C(=O)CNCCCCN)C(=O)N[C@@H](Cc1ccc2ccccc2c1)C(=O)N[C@@H](Cc1ccccc1)C(=O)N[C@@H](Cc1ccc2ccccc2c1)C(N)=O [Compound 29, NLys-NLys-NLys-Leu-(2-Nal)Ala-Phe-(2-Nal)Ala] (H-[Nlys][Nlys][Nlys]L[2Nal]F[2Nal]-NH2; N-terminus assumed)	9 µM	–	46%	4 to 8 µg/mL	16 to 32 µg/mL	32 µg/mL
CC(C)C[C@@H](NC(=O)[C@H](CCCCN)NC(=O)[C@@H](N)CCCCN)C(=O)N[C@@H](CCCCN)C(=O)N[C@H](Cc1cccc2ccccc12)C(=O)N[C@H](Cc1ccccc1)C(=O)N[C@H](Cc1cccc2ccccc12)C(N)=O [Compound 14, Lys-Lys-leu-Lys-(1-Nal)ala-phe-(1-Nal)ala] (H-KK[dL]K[d1Nal][dF][d1Nal]-NH2; N-terminus assumed)	28 µM	128 µM	58%	4 to 8 µg/mL	16 µg/mL	16 to 32 µg/mL
